pEC50: −log10 of the molar value.

The source of these data is patent US12421205B2, “GLP-1 receptor agonist” (HYUNDAI PHARM CO., LTD., priority 2019, dated 2025).

The target in series [1] is T1, hERG (Homo sapiens, UniProt Q12809).
T1 construct: purchased Invitrogen PV5365
The series can be described thus: hERG inhibition test (Predictor hERG Fluorescence Polarization assay kit). In kind it is binding. As to conditions: probe kit Tracer (fluorescent hERG ligand), hERG % inhibition at 10 uM, relative to E-4031 and solvent control. A digest of the protocol: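 Competitive fluorescence-polarization binding of fluorescent tracer to hERG membrane preparation, 2.5 h at room temperature, mP read at 531/579 nm. % inhibition at 10 uM test compound, scaled between solvent control (0%) and E-4031 (100%).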

The target of series [2] is T2, human GLP-1 receptor (Homo sapiens, UniProt P43220).
T2 construct: host or cells: CHO-K1
The series can be described thus: cAMP activity test (cAMP dynamic HTRF kit) in CHO-K1/GLP-1 receptor-expressing cells. In kind it is cell-based. Particulars: cAMP activity, CHO-K1/GLP-1 receptor-expressing cells; read-out: EC50. An outline of the steps:
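Cells in HBSS with 0.1% BSA, 0.5 mM IBMX and 5 mM HEPES, then lysed; cAMP-d2 and anti-cAMP cryptate added for 3 h. HTRF read-out, where FRET signal is inversely proportional to intracellular cAMP.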

T1 sequence (Q12809 whole entry): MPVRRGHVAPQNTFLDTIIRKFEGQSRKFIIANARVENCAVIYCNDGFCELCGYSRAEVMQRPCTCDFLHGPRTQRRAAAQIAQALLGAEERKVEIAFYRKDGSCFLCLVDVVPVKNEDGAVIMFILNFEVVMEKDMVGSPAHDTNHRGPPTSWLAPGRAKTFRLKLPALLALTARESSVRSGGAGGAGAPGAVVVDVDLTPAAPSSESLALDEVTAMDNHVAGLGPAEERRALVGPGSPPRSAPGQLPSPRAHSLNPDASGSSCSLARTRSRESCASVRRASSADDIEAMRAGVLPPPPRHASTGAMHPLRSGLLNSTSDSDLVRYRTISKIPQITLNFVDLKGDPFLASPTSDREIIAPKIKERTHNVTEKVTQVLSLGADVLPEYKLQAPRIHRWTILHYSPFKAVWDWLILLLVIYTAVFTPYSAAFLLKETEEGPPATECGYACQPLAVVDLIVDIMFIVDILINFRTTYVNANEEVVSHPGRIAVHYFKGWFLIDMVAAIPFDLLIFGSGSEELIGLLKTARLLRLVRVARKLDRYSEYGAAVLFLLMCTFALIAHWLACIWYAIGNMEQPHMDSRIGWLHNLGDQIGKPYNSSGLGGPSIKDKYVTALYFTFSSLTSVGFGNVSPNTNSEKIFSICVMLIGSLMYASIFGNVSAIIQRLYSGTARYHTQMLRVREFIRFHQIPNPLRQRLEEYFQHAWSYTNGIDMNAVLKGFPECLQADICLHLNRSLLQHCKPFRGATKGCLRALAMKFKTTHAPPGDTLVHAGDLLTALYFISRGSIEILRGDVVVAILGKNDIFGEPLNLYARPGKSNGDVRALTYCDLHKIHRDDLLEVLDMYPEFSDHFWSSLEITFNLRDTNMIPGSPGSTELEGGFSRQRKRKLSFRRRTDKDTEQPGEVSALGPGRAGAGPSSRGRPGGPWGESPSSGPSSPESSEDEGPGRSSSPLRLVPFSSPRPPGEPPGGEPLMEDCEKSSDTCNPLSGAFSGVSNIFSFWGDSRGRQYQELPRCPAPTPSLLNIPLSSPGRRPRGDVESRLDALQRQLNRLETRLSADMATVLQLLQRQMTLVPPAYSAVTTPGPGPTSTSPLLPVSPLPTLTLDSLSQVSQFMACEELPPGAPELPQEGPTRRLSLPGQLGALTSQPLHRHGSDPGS
T2 sequence (P43220 24-463): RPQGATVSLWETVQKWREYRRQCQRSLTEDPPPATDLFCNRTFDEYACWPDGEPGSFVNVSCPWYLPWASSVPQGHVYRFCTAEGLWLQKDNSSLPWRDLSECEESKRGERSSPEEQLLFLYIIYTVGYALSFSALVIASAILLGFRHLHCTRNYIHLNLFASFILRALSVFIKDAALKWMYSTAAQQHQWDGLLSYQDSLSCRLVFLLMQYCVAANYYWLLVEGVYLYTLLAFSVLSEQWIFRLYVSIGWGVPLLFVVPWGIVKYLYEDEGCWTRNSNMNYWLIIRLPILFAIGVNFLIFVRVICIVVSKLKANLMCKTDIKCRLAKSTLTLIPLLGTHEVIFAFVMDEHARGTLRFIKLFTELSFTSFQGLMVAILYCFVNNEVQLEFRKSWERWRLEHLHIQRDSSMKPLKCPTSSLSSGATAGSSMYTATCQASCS

On to `O=C(O)c1ccc2nc(Cc3ccc(-c4cccc(OCc5ccc(F)c(F)c5)n4)cc3F)n(CC3CCCO3)c2c1` (centres unmarked) [Example 85, 2-(4-(6-(3,4-difluorobenzyloxy)pyridin-2-yl)-2-fluorobenzyl)-1-((tetrahydrofuran-2-yl)methyl)-1H-benzo[d]imidazole-6-carboxylic acid], for which the inhibition at 2.5 h, 10 µM in series [1] was -12.9%. For the same compound, the pEC50 in series [2] is 7.13.
For `N#Cc1ccc(COc2cccc(-c3cc(F)c(Cc4nc5ccc(C(=O)O)cc5n4C[C@@H]4CCCO4)cc3F)n2)c(F)c1` [Example 120, (S)-2-(4-(6-((4-cyano-2-fluorobenzyl)oxy)pyridin-2-yl)-2,5-difluorobenzyl)-1-((tetrahydrofuran-2-yl)methyl)-1H-benzo[d]imidazole-6-carboxylic acid], the inhibition at 2.5 h, 10 µM in series [1] is -3.82%. In series [2], the pEC50 was above 8.49.
On to `N#Cc1ccc(COc2cccc(-c3ccc(Cc4nc5ccc(C(=O)O)cc5n4C[C@@H]4CCO4)c(F)c3F)n2)c(F)c1` [Example 113, (S)-2-(4-(6-((4-cyano-2-fluorobenzyl)oxy)pyridin-2-yl)-2,3-difluorobenzyl)-1-(oxetan-2-ylmethyl)-1H-benzo[d]imidazole-6-carboxylic acid], for which the inhibition at 2.5 h, 10 µM in series [1] was -4.94%. In addition, the negative-log EC50 (pEC50) in series [2] is above 8.49.
The matching figures for `O=C(O)c1ccc2nc(Cc3c(F)cc(-c4cccc(OCc5ccc(Cl)cc5F)n4)cc3F)n(CC3CCCO3)c2c1` (centres unmarked) [Example 65, 2-(4-(6-(4-chloro-2-fluorobenzyloxy)pyridin-2-yl)-2,6-difluorobenzyl)-1-((tetrahydrofuran-2-yl)methyl)-1H-benzo[d]imidazole-6-carboxylic acid]: 10.8% and 8.30.
Regarding `O=C(O)c1ccc2nc(Cc3cc(F)c(-c4cccc(OCc5ccc(Cl)cc5F)n4)cc3F)n(C[C@@H]3CCO3)c2c1` [Example 86, (S)-2-(4-(6-(4-chloro-2-fluorobenzyloxy)pyridin-2-yl)-2,5-difluorobenzyl)-1-(oxetan-2-ylmethyl)-1H-benzo[d]imidazole-6-carboxylic acid], the inhibition at 2.5 h, 10 µM in series [1] is 8.93%. Also, in series [2], the pEC50 is above 8.49.
The matching figures for `COCCn1c(Cc2ccc(-c3cccc(OCc4ccc(Cl)cc4F)n3)cc2C)nc2ccc(C(=O)O)cc21` [Example 53, 2-(4-(6-(4-chloro-2-fluorobenzyloxy)pyridin-2-yl)-2-methylbenzyl)-1-(2-methoxyethyl)-1H-benzo[d]imidazole-6-carboxylic acid]: 18.7% and 7.41.
With `O=C(O)c1ccc2nc(Cc3ccc(-c4cccc(OCc5ccc(Cl)cc5F)n4)cc3F)n(CCF)c2c1` [Example 43, 2-(4-(6-(4-chloro-2-fluorobenzyloxy)pyridin-2-yl)-2-fluorobenzyl)-1-(2-fluoroethyl)-1H-benzo[d]imidazole-6-carboxylic acid], in series [1], the inhibition at 2.5 h, 10 µM is -2.26%. The pEC50 in series [2] was 7.14.
For the compound `O=C(O)c1ccc2nc(Cc3ccc(-c4cccc(OCc5ccc(C(F)(F)F)cc5)n4)c(F)c3)n(CC3CCCO3)c2c1` (centres unmarked) [Example 97, 2-(3-fluoro-4-(6-(4-(trifluoromethyl)benzyloxy)pyridin-2-yl)benzyl)-1-((tetrahydrofuran-2-yl)methyl)-1H-benzo[d]imidazole-6-carboxylic acid], the inhibition at 2.5 h, 10 µM in series [1] was 6.11%. Moreover, in series [2], the pEC50 was 7.51.
In the same order, the values of `O=C(O)c1ccc2nc(Cc3ccc(-c4cccc(OCc5ccccc5)n4)cc3F)n(CC3CCCO3)c2c1` (centres unmarked) [Example 83, 2-(4-(6-(benzyloxy)pyridin-2-yl)-2-fluorobenzyl)-1-((tetrahydrofuran-2-yl)methyl)-1H-benzo[d]imidazole-6-carboxylic acid] are 2.37% and 6.80.
For the compound `COCCn1c(Cc2ccc(-c3cccc(OCc4ccc(C#N)cc4F)n3)cc2C)nc2ccc(C(=O)O)cc21` [Example 54, 2-(4-(6-(4-cyano-2-fluorobenzyloxy)pyridin-2-yl)-2-methylbenzyl)-1-(2-methoxyethyl)-1H-benzo[d]imidazole-6-carboxylic acid], the inhibition at 2.5 h, 10 µM in series [1] is 36.5%. Besides, the negative logarithm of the EC50 (pEC50) in series [2] is 6.96.
